Laboratory results published in patent US7504243B2, “Methods for the production of biliverdin” (The United States of America as represented by the …, priority 2004, dated 2009).

Tested on: CaHMX1 promoter
Assay: Renilla luciferase reporter driven by the CaHMX1 promoter in knock-in strain CAMP Ki-29
Assay type: cell-based, Candida albicans
Conditions: for Luciferase Activity: strain Ki-29, iron-replete medium, 30° C., 15 min, 1 mg/ml protein, mean±S.D. of two experiments, light units per 5×10^7 cells/assay point
From the text: and cloning into pCR-BluntII TOPO (Invitrogen). The inserted fragment is then excised with SstI and PstI and cloned into plasmid pCRW3 (Srikantha, T. et al. (1996) “THE SEA PANSY RENILLA RENIFORMIS LUCIFERASE SERVES AS A SENSITIVE BIOLUMINESCENT REPORTER FOR DIFFERENTIAL GENE EXPRESSION IN CANDIDA ALBICANS,” J. Bacteriol. 178:121-129) using similar sites resulting in plasmid pPt14. This plasmid was linearized at the unique KpnI site in the CaHMX1 promoter (see, FIG. 2, Panel D) to enable recombination into the CaHMX1 genomic site in the C. albicans strain Red 3/6 (Srikantha, T. et al. (1996) “THE SEA PANSY RENILLA RENIFORMIS LUCIFERASE SERVES AS A SENSITIVE BIOLUMINESCENT REPORTER FOR DIFFERENTIAL GENE EXPRESSION IN CANDIDA ALBICANS,” J. Bacteriol. 178:121-129). […] This knock-in procedure is desirable because the reporter plasmid pPt14 is not functional when integrated into the Ade2 locus when introduced as an episome. The resulting strain, CAMP Ki-29, is used for all reporter assays discussed herein. The correct insertion sites of the preceding constructs in the genomes of strains CAMP 50 and CAMP Ki-29 are verified by Southern blotting.
Luciferase Assays—Reporter assays use C. albicans cells that are grown at 30° C. in minimal YNB medium with ammonium sulfate and 2% glucose. 5×10^7 cells were harvested, cell extracts were obtained by glass bead lysis (Srikantha, T. et al. (1996) “THE SEA PANSY RENILLA RENIFORMIS LUCIFERASE SERVES AS A SENSITIVE BIOLUMINESCENT REPORTER FOR DIFFERENTIAL GENE EXPRESSION IN CANDIDA ALBICANS,” J. Bacteriol. 178:121-129), and luminescence is determined using coelenterazine as a substrate (Promega). Luciferase activity is defined as the number of light units using 5×10^7 cells/assay point in 200 μl of lysis buffer using a 5-μl volume for light measurement. To assess regulation of the promoter by iron, the ferrous iron chelator ferrozine is added to cell cultures in the presence of FAS to buffer iron concentrations as described (Philpott, C. C. et al. (1998) “CELL-CYCLE ARREST AND INHIBITION OF G1 CYCLIN TRANSLATION BY IRON IN AFT1-1^UP YEAST,” EMBO J. 17, 5026-5036) (see also, Chaney, R. L. (1988) “PLANTS CAN UTILIZE IRON FROM IRON-N,N′-DI-2 HYDROXYBENZOYLETHYLENEDIAMINE-N,N′-DIACETIC ACID, A FERRIC CHELATE WITH 1,000,000 GREATER FORMATION CONSTANT THAN IRON-EDDHA,” J. Plant Nutr. 11, 1033-1050). FAS added to 1 mM ferrozine at 10, 100, and 400 μM represents low, optimal, and high levels of iron, respectively.
To ensure that this induction is specific for Hb, several control proteins are tested for their ability to stimulate luciferase activity in strain Ki-29 (Table 1). […] Therefore, the iron in Hb is not essential for activity, but the native conformation of globin induced by porphyrin binding is required.

| Substance | Luciferase Activity | other results |
| --- | --- | --- |
| CoPPIX-globin: The cobalt analog of Hb; cobalt protoporphyrin IX substituted for the heme in globin | 161.7 ± 24 | – |
| Holo-transferrin: ferroprotein transferrin, control protein from Sigma | 20.7 ± 0.55 | – |
| Apo-transferrin: control protein from Sigma | 64.4 ± 11.8 | – |
| Casein | 38.6 ± 8.1 | – |
| hemin [reference compound] | – | increase in activity over the iron-replete control when hemin is added to Hb combined with ferrozine (24 h, Hb 25 μM + ferrozine 100 μM + hemin 25 μM): 2.5 fold; increase of CaHMX1 promoter activity by hemin after 24 h (CAMP Ki-29 cells, hemin 25 μM, 24 h): about 2 fold; lag time before induction of promoter activity (iron-deficient medium, 25 μM hemin, extended time course): 3 h |
| Fetuin: control protein from Sigma | 59.3 ± 5.9 | – |
